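In this assay, cells in 96-well plates receive the compound at five concentrations for 48 hours. Endpoints are linearly interpolated between the surrounding concentrations. TGI is the concentration that stops growth completely.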

Test systems include A498 renal; NCI-H522 lung; SK-MEL-5 melanoma; NCI/ADR-RES ovarian; MDA-MB-435; MOLT-4 leukemia; HCT-116 colon; MDA-N; SK-MEL-2 melanoma; HT29 colon; U251 CNS; RPMI-8226 leukemia; HS 578T breast; KM12 colon; T-47D breast; TK-10 renal; HOP-92 NSCLC; HCC-2998 colon; NCI-H460 lung.
What all share (assay): growth of human tumour cells (NCI), 48 h

For the molecule `C=C1C(=O)OC2/C=C(\CO)C3OC3C3OC3(C)CC(OC(=O)/C(=C/C)CO)C12` (stereo not given), the TGI in the test on A498 renal is above 100 µM; in the test on NCI-H522 lung, 45.6 µM; with SK-MEL-5 melanoma it was above 100 µM; in the test with NCI/ADR-RES ovarian it was above 100 µM; in the test on MDA-MB-435 it was above 100 µM; in the test on MOLT-4 leukemia it was 84.3 µM. Moreover, the TGI with HCT-116 colon is above 100 µM; with MDA-N, above 100 µM; with SK-MEL-2 melanoma, above 100 µM; in the test with HT29 colon, above 100 µM; with U251 CNS, above 100 µM; with RPMI-8226 leukemia, 45.7 µM. Moreover, the TGI with HS 578T breast, with KM12 colon, in the test on T-47D breast, in the test with TK-10 renal, in the test with HOP-92 NSCLC and with HCC-2998 colon was above 100 µM each time. Further, in the test with NCI-H460 lung, the TGI is above 100 µM.
Turning to `COC(=O)c1cc2c(o1)Sc1ccccc1NC2=O`, the TGI with A498 renal, in the test on NCI-H522 lung, with SK-MEL-5 melanoma, in the test on NCI/ADR-RES ovarian, in the test on MDA-MB-435 and in the test with MOLT-4 leukemia was above 100 µM throughout. Besides, the TGI in the test with HCT-116 colon, with MDA-N, in the test with SK-MEL-2 melanoma, with HT29 colon, in the test on U251 CNS and in the test on RPMI-8226 leukemia was above 100 µM throughout. The TGI with HS 578T breast is 63.8 µM; in the test with KM12 colon, above 100 µM; in the test on T-47D breast it was above 100 µM; in the test on TK-10 renal, above 100 µM; in the test on HOP-92 NSCLC, above 100 µM; in the test on HCC-2998 colon, above 100 µM. The TGI with NCI-H460 lung was above 100 µM.
As for `COc1ccc2cc(CNCCCCCCCCCCCCNCc3ccc4cc(OC)ccc4c3)ccc2c1`, the TGI is 31.9 µM in the test with A498 renal; 33.8 µM in the test on NCI-H522 lung; above 54 µM in the test with SK-MEL-5 melanoma; 43 µM with NCI/ADR-RES ovarian; above 55.5 µM in the test with MDA-MB-435; above 58.9 µM with MOLT-4 leukemia. Further, the TGI with HCT-116 colon is 32.8 µM; with MDA-N, above 54.4 µM; with SK-MEL-2 melanoma, 41.1 µM; in the test with HT29 colon, 23 µM; in the test on U251 CNS, 43.8 µM; in the test with RPMI-8226 leukemia, 42.6 µM. Besides, the TGI in the test on HS 578T breast came out at 31.7 µM; in the test on KM12 colon, 40.1 µM; in the test on T-47D breast, 49.9 µM; in the test on TK-10 renal, 32.8 µM; in the test with HOP-92 NSCLC it was 47.5 µM; in the test with HCC-2998 colon, 39.1 µM. Besides, in the test on NCI-H460 lung, the TGI amounted to 35.8 µM.
As to `CC(=O)Oc1cc2c(n(C)c1=O)-c1ccccc1C2`, the TGI is above 100 µM in the test on A498 renal; 30.7 µM in the test on NCI-H522 lung; above 100 µM in the test with SK-MEL-5 melanoma; 58.3 µM in the test on NCI/ADR-RES ovarian; above 100 µM with MDA-MB-435; above 100 µM in the test with MOLT-4 leukemia. Further, the TGI with HCT-116 colon, in the test with MDA-N, in the test on SK-MEL-2 melanoma, in the test with HT29 colon, in the test with U251 CNS and in the test with RPMI-8226 leukemia was above 100 µM in each case. In addition, the TGI in the test on HS 578T breast, in the test on KM12 colon, in the test with T-47D breast, with TK-10 renal, in the test on HOP-92 NSCLC and in the test with HCC-2998 colon was above 100 µM each time. In the test with NCI-H460 lung, this molecule gave a TGI above 100 µM.
As to `COc1cc(OCc2ccc3nc(-c4ccccc4)c(Cl)nc3c2)cc(OC)c1OC`, the TGI in the test on A498 renal is 98.9 µM; in the test with NCI-H522 lung it was above 100 µM; in the test with SK-MEL-5 melanoma, above 100 µM; with NCI/ADR-RES ovarian it was above 100 µM; with MDA-MB-435, above 100 µM; in the test on MOLT-4 leukemia it was above 100 µM. In addition, the TGI was above 100 µM in the test on HCT-116 colon; above 100 µM in the test with MDA-N; above 100 µM in the test on SK-MEL-2 melanoma; above 100 µM with HT29 colon; 52.3 µM with U251 CNS; above 100 µM with RPMI-8226 leukemia. Also, the TGI is above 100 µM with HS 578T breast; above 100 µM with KM12 colon; above 100 µM in the test with T-47D breast; above 100 µM in the test on TK-10 renal; 78.3 µM in the test on HOP-92 NSCLC; above 100 µM in the test on HCC-2998 colon. In addition, in the test with NCI-H460 lung, the TGI is above 100 µM.
With `COC(=O)C(Cc1c[nH]c2ccccc12)N=C1Nc2ccncc2S(=O)(=O)N1c1ccccc1` (stereo not given), the TGI in the test with A498 renal is above 100 µM; in the test on NCI-H522 lung, above 100 µM; in the test with SK-MEL-5 melanoma it was 30 µM; in the test with NCI/ADR-RES ovarian, above 100 µM; in the test on MDA-MB-435, 87.3 µM; with MOLT-4 leukemia, 35.1 µM. Moreover, the TGI in the test on HCT-116 colon is above 100 µM; in the test on MDA-N, above 100 µM; in the test on SK-MEL-2 melanoma it was 68.5 µM; in the test with HT29 colon, 44.9 µM; in the test with U251 CNS, above 100 µM; in the test with RPMI-8226 leukemia it was 29.3 µM. The TGI with HS 578T breast was above 100 µM; in the test on KM12 colon it was above 100 µM; in the test on T-47D breast, 51 µM; in the test with TK-10 renal, above 100 µM; in the test with HOP-92 NSCLC, 54.8 µM; with HCC-2998 colon it was 60.8 µM. The molecule further returned a TGI in the test on NCI-H460 lung above 100 µM.
Turning to `CC(=O)C(I(OS(=O)(=O)c1ccc(C)cc1)c1ccccc1)=P(c1ccccc1)(c1ccccc1)c1ccccc1`, the TGI with A498 renal is above 100 µM; with NCI-H522 lung, 24.5 µM; in the test on SK-MEL-5 melanoma, 63.3 µM; in the test with NCI/ADR-RES ovarian, above 100 µM; with MDA-MB-435 it was 32.4 µM; in the test with MOLT-4 leukemia it was above 100 µM. Also, the TGI in the test on HCT-116 colon turned out to be 50.2 µM; in the test with MDA-N, 33.2 µM; with SK-MEL-2 melanoma, 36 µM; in the test on HT29 colon, 49.6 µM; in the test with U251 CNS, 98.5 µM; with RPMI-8226 leukemia, 61.1 µM. Besides, the TGI with HS 578T breast is 68.8 µM; in the test on KM12 colon, 38.2 µM; in the test on T-47D breast, 85.3 µM; in the test with TK-10 renal it was above 100 µM; in the test on HOP-92 NSCLC, 54.7 µM; in the test with HCC-2998 colon it was 39 µM. Moreover, the TGI in the test with NCI-H460 lung is above 100 µM.
Consider `O=C1NC(=O)C(Cc2ccccc2)(c2cccnc2)N1` (stereo not given), for which the TGI in the test with A498 renal, in the test on NCI-H522 lung, in the test with SK-MEL-5 melanoma, in the test with NCI/ADR-RES ovarian, in the test with MDA-MB-435 and in the test with MOLT-4 leukemia was above 100 µM in each case. Moreover, the TGI with HCT-116 colon, in the test with MDA-N, with SK-MEL-2 melanoma, in the test on HT29 colon, in the test on U251 CNS and with RPMI-8226 leukemia was above 100 µM each time. The TGI in the test on HS 578T breast, with KM12 colon, in the test with T-47D breast, with TK-10 renal, in the test with HOP-92 NSCLC and in the test on HCC-2998 colon was above 100 µM throughout. This molecule had a TGI with NCI-H460 lung above 100 µM.
For `CN(C)C=C1C(=O)c2c(Br)sc(Br)c2C1=O`, the TGI is 47.8 µM in the test on A498 renal; 31.5 µM with NCI-H522 lung; 30.6 µM in the test with SK-MEL-5 melanoma; 73.2 µM in the test with NCI/ADR-RES ovarian; 29.5 µM with MDA-MB-435; above 100 µM with MOLT-4 leukemia. The TGI with HCT-116 colon is 53.9 µM; with MDA-N, 42.1 µM; in the test on SK-MEL-2 melanoma, 31.3 µM; in the test with HT29 colon, 86.5 µM; in the test with U251 CNS, 39.6 µM; with RPMI-8226 leukemia it was above 100 µM. Moreover, the TGI was 46.9 µM with HS 578T breast; above 100 µM in the test with KM12 colon; above 100 µM in the test with T-47D breast; 99.7 µM with TK-10 renal; 37.1 µM with HOP-92 NSCLC; 25.9 µM with HCC-2998 colon. The TGI in the test with NCI-H460 lung was 48.7 µM.
`CNc1c2cccc(C)c2nc2c(C(=O)NCCN(C)C)cccc12`: the TGI in the test on A498 renal came to 0.935 µM; in the test with NCI-H522 lung it was 0.109 µM; in the test with SK-MEL-5 melanoma, 0.593 µM; with NCI/ADR-RES ovarian, 1.83 µM; in the test with MDA-MB-435, 0.34 µM; with MOLT-4 leukemia, 0.306 µM. The TGI turned out to be 0.453 µM in the test on HCT-116 colon; 0.328 µM in the test with MDA-N; 0.996 µM in the test on SK-MEL-2 melanoma; 0.138 µM in the test with HT29 colon; 0.651 µM in the test on U251 CNS; 0.57 µM in the test with RPMI-8226 leukemia. The TGI in the test on HS 578T breast was 0.497 µM; with KM12 colon, 1.67 µM; in the test on T-47D breast it was 0.675 µM; with TK-10 renal, 0.617 µM; with HOP-92 NSCLC it was 0.522 µM; in the test on HCC-2998 colon, 0.192 µM. In the test with NCI-H460 lung, the TGI came out at 0.206 µM.
